{
  "source": "ChEMBL document CHEMBL5260858",
  "about": "“Targeting mycobacterial membranes and membrane proteins: Progress and limitations” (Bioorg Med Chem, 2023)",
  "key": {"[1]": {"system": "Mycobacterium tuberculosis", "assay": "Antitubercular activity against Mycobacterium tuberculosis H37Rv overexpressing DprE1 assessed as bacterial growth inhibition", "format": "functional"}, "[2]": {"system": "Mycobacterium tuberculosis", "assay": "Antitubercular activity against multidrug-resistant clinical isolate Mycobacterium tuberculosis CDCT-27 assessed as bacterial growth inhibition", "format": "functional"}, "[3]": {"system": "Mycobacterium tuberculosis", "assay": "Antitubercular activity against multidrug-resistant clinical isolate Mycobacterium tuberculosis CDCT-2 assessed as bacterial growth inhibition", "format": "functional"}, "[4]": {"system": "Mycobacterium tuberculosis", "assay": "Antitubercular activity against multidrug-resistant clinical isolate Mycobacterium tuberculosis CDCT-3 assessed as bacterial growth inhibition", "format": "functional"}, "[5]": {"system": "Mycobacterium tuberculosis", "assay": "Antitubercular activity against isoniazid resistant Mycobacterium tuberculosis ATCC 35822 infected in RAW264.7 cells assessed as inhibition of intracellular bacterial growth incubated for 6 days by microplate alamar blue assay", "format": "functional", "parameters": "scale not given: the % may be the effect or the level left", "conditions": "time 6 day"}, "[6]": {"system": "Mycobacterium tuberculosis", "assay": "Antitubercular activity against ethambutol resistant Mycobacterium tuberculosis ATCC 35837 inhibition infected in RAW264.7 cells assessed as inhibition of intracellular bacterial growth incubated for 6 days by microplate alamar blue assay", "format": "functional", "parameters": "scale not given: the % may be the effect or the level left", "conditions": "time 6 day"}, "[7]": {"system": "Mycobacterium tuberculosis", "assay": "Antitubercular activity against rifampicin resistant Mycobacterium tuberculosis ATCC 35838 infected in RAW264.7 cells assessed as inhibition of intracellular bacterial growth incubated for 6 days by microplate alamar blue assay", "format": "functional", "parameters": "scale not given: the % may be the effect or the level left", "conditions": "time 6 day"}, "[8]": {"system": "Mycobacterium tuberculosis", "assay": "Antimycobacterial activity against multidrug resistant Mycobacterium tuberculosis 16995 assessed as bacterial growth inhibition incubated for 7 days by microplate Alamar blue assay", "format": "functional", "conditions": "Mycobacterium tuberculosis, 16995, 168 h; time 7 day"}, "[9]": {"system": "Mycobacterium tuberculosis", "assay": "Antimycobacterial activity against multidrug resistant Mycobacterium tuberculosis 16833 assessed as bacterial growth inhibition incubated for 7 days by microplate Alamar blue assay", "format": "functional", "conditions": "Mycobacterium tuberculosis, 16833, 168 h; time 7 day"}, "[10]": {"system": "Mycobacterium tuberculosis", "assay": "Antitubercular activity against multidrug resistant Mycobacterium tuberculosis assessed as bacterial growth inhibition incubated for 6 days by resazurin based fluorescence assay", "format": "functional", "conditions": "144 h, time 6 day"}, "[11]": {"system": "Mycobacterium tuberculosis", "assay": "Antitubercular activity against extensively drug resistant Mycobacterium tuberculosis assessed as bacterial growth inhibition incubated for 6 days by resazurin based fluorescence assay", "format": "functional", "conditions": "144 h, time 6 day"}, "[12]": {"system": "Mycobacterium tuberculosis", "assay": "Antimycobacterial activity against BTZ-resistant Mycobacterium tuberculosis NTB1 assessed as bacterial growth inhibition incubated for 6 days by resazurin dye based assay", "format": "functional", "conditions": "NTB1, 144 h, time 6 day"}, "[13]": {"system": "Mycobacterium tuberculosis", "assay": "Antitubercular activity against multidrug resistant Mycobacterium tuberculosis SK-7782 assessed as bacterial growth inhibition by resazurin microtiter assay", "format": "functional"}, "[14]": {"system": "Mycobacterium tuberculosis", "assay": "microbe, parasite or virus in culture", "conditions": "144 h"}, "[15]": {"system": "Mycobacterium tuberculosis", "assay": "microbe, parasite or virus in culture", "conditions": "144 h", "remark": "listed apart in the source"}, "[16]": {"system": "Mycobacterium tuberculosis", "assay": "Antitubercular activity against multidrug resistant Mycobacterium tuberculosis clinical isolate assessed as bacterial growth inhibition", "format": "functional"}, "[17]": {"system": "Mycobacterium tuberculosis", "assay": "Antimycobacterial activity against clinically isolated multidrug resistant Mycobacterium tuberculosis assessed as bacterial growth inhibition incubated for 14 days by CLSI protocol based assay", "format": "functional", "conditions": "336 h, time 14 day"}},
  "data": [
    {"smiles": "C[C@@H](NC(=O)c1cc([N+](=O)[O-])cc(C(F)(F)F)c1)c1ccccc1", "values": [
      {"measurement": "MIC", "setting": "[1]", "value": 310, "unit": "ng/mL"}
    ]},
    {"smiles": "CCCc1ccc(NC(=O)COc2cc(C)nc3ccc(OC)cc23)cc1", "values": [
      {"measurement": "MIC", "setting": "[2]", "value": 4, "unit": "ng/mL"},
      {"measurement": "MIC", "setting": "[3]", "value": "< 2", "unit": "ng/mL"},
      {"measurement": "MIC", "setting": "[4]", "value": 8, "unit": "ng/mL"}
    ]},
    {"smiles": "CC(C)=CCC/C(C)=C/CNCCNC1C2CC3CC(C2)CC1C3", "note": "(stereo not given) [SQ109]", "values": [
      {"measurement": "Activity", "setting": "[5]", "value": 99, "unit": "%"},
      {"measurement": "Activity", "setting": "[6]", "value": 99, "unit": "%"},
      {"measurement": "Activity", "setting": "[7]", "value": 99, "unit": "%"}
    ]},
    {"smiles": "O=c1nc(N2CC3CN(Cc4ccc(OC(F)(F)F)cc4)CC3C2)sc2c([N+](=O)[O-])cc(C(F)(F)F)cc12", "note": "(stereo not given)", "values": [
      {"measurement": "MIC", "setting": "[8]", "value": 0.053, "unit": "µM"},
      {"measurement": "MIC", "setting": "[9]", "value": 0.085, "unit": "µM"}
    ]},
    {"smiles": "O=c1nc(N2CC3CN(Cc4ccc(Cl)c(F)c4)CC3C2)sc2c([N+](=O)[O-])cc(C(F)(F)F)cc12", "note": "(stereo not given)", "values": [
      {"measurement": "MIC", "setting": "[8]", "value": 0.073, "unit": "µM"},
      {"measurement": "MIC", "setting": "[9]", "value": 0.102, "unit": "µM"}
    ]},
    {"smiles": "CCc1ccc([C@H]2C[C@@H](C(F)(F)F)n3ncc(C(=O)NCc4ccc(OC)cc4)c3N2)cc1", "values": [
      {"measurement": "MIC", "setting": "[10]", "value": 0.16, "unit": "µM"},
      {"measurement": "MIC", "setting": "[11]", "value": 0.3, "unit": "µM"}
    ]},
    {"smiles": "CCS(=O)(=O)N1CCN(c2nc(=O)c3cc(C(F)(F)F)cc([N+](=O)[O-])c3s2)CC1", "values": [
      {"measurement": "MIC", "setting": "[12]", "value": 25100, "unit": "ng/mL"}
    ]},
    {"smiles": "COc1ccc(/C=C2/S/C(=N/N=C/c3ccccc3O)NC2=O)cc1", "values": [
      {"measurement": "MIC90", "setting": "[13]", "value": 1000, "unit": "ng/mL"}
    ]},
    {"smiles": "CCCCCc1ccc(NC(=O)COc2cc(C)nc3ccc(OC)cc23)cc1", "values": [
      {"measurement": "MIC", "setting": "[2]", "value": "< 2", "unit": "ng/mL"},
      {"measurement": "MIC", "setting": "[3]", "value": "< 2", "unit": "ng/mL"},
      {"measurement": "MIC", "setting": "[4]", "value": "< 2", "unit": "ng/mL"}
    ]},
    {"smiles": "CNC(=O)c1c(-c2ccc(O)cc2)oc2ccc(O)c(CN3CCCCC3)c12", "values": [
      {"measurement": "MIC", "setting": "[14]", "value": 0.125, "unit": "µM"},
      {"measurement": "MIC", "setting": "[15]", "value": 0.06, "unit": "µM"}
    ]},
    {"smiles": "CCc1ccc(NC(=O)COc2cc(C)nc3ccc(OC)cc23)cc1", "values": [
      {"measurement": "MIC", "setting": "[2]", "value": 8, "unit": "ng/mL"},
      {"measurement": "MIC", "setting": "[3]", "value": "< 2", "unit": "ng/mL"},
      {"measurement": "MIC", "setting": "[4]", "value": 8, "unit": "ng/mL"}
    ]},
    {"smiles": "CC1(C)CC(=O)C(=CNc2ccccc2O)C(=O)C1", "values": [
      {"measurement": "MIC90", "setting": "[13]", "value": 8000, "unit": "ng/mL"}
    ]},
    {"smiles": "COc1nc2ccc(Br)cc2cc1[C@@H](c1ccccc1)[C@@](O)(CCN(C)C)c1cccc2ccccc12", "note": "[BEDAQUILINE]", "values": [
      {"measurement": "MIC", "setting": "[16]", "value": 10, "unit": "ng/mL"}
    ]},
    {"smiles": "O=c1nc(N2CCN(S(=O)(=O)C3CC3)CC2)sc2c([N+](=O)[O-])cc(C(F)(F)F)cc12", "values": [
      {"measurement": "MIC", "setting": "[12]", "value": 14700, "unit": "ng/mL"}
    ]},
    {"smiles": "C[C@@]1(COc2ccc(N3CCC(Oc4ccc(OC(F)(F)F)cc4)CC3)cc2)Cn2cc([N+](=O)[O-])nc2O1", "values": [
      {"measurement": "MIC", "setting": "[17]", "value": 6, "unit": "ng/mL"}
    ]},
    {"smiles": "O=c1nc(N2CCN(S(=O)(=O)c3cccs3)CC2)sc2c([N+](=O)[O-])cc(C(F)(F)F)cc12", "values": [
      {"measurement": "MIC", "setting": "[12]", "value": "> 100000", "unit": "ng/mL"}
    ]},
    {"smiles": "c1cc2c(s1)CCOC21CCN(Cc2ccc3c(c2)OCCO3)CC1", "values": [
      {"measurement": "MIC", "setting": "[10]", "value": 0.3, "unit": "µM"},
      {"measurement": "MIC", "setting": "[11]", "value": 0.3, "unit": "µM"}
    ]}
  ]
}
